Experimental data as given in US20230091960A1, “CULTURE MEDIUM FOR PRIMARY CELLS OF ESOPHAGEAL SQUAMOUS CARCINOMA, AND CULTIVATION METHOD THEREFOR” (PRECEDO PHARMACEUTICALS CO., LTD, priority 2020, published 2023).

Assays:
Format in all cases: cell-based, human
[1] = test system: primary cells of esophageal squamous carcinoma; assay: Effects of concentrations of the added factors or small molecule compounds on proliferation (Example 7); conditions: for proliferation promoting effect when added to No. 7 medium: 10 μM, 3 μM, 1 μM, 0.3 μM, 0.1 μM, control No. 7 medium; for concentration at which the cell proliferation effect is most significant: added to No. 7 medium lacking this factor
Protocol: According to the same process as in Example 1, endoscopic tissue Sample 65, Sample 66, Sample 67, Sample 68 and Sample 69 were isolated to obtain primary cells of esophageal squamous carcinoma, and the obtained primary cells of esophageal squamous carcinoma were cultured by using No. 7 medium of Example 1. The resultants were inoculated into 12-well plate at a living cell density of 1×10^4/cm^2 (45,000 cells per well), and then the plate was added with NIH-3T3 cells that have been irradiated by γ-ray (irradiation dose 35Gy) at a cell density of 2×10^4/cm^2, which were then fully mixed. After surface disinfection, the plate was placed in a 37° C., 5% CO2 incubator (Thermo Fisher) for culture. When the cells expended to cover 85% of the plate, the 12-well plate was taken out, rinsed with 200 μL 0.25% trypsin (Gibco) for 1 minute. The liquid was removed by sucking, and 500 μL 0.05% trypsin (Gibco) was added to each well again. The resultant was placed in a 37° C., 5% CO2 incubator to react for 10 minutes, and the digestion can be terminated until it can be observed under the microscope (EVOS […], Invitrogen) that the cells have been completely digested. After being centrifuged at 1500 rpm for 4 minutes, the supernatant was discarded, and 1 mL of basic culture medium was added for resuspension. The total number of cells was obtained by counting with a flow imaging counter (JIMBIO FIL, Jiangsu Jimbio Technology Co., Ltd.). The obtained cells were used for the following cultivation experiments. The digested cell suspension was diluted with the above Formulations 1-8 and No. 7 medium in Example 1 respectively, and were seeded into a 24-well plate with 20,000 cells and 500 μL volume per well. When using the medium of Formulation 1, five concentration gradients of N2 additives with the final concentration of 1:400, 1:200, 1:100, 1:50 and 1:25 were prepared, respectively, and the prepared N2 additives were added respectively to a 24-well plate inoculated with primary cells, with 500 μL per well; the medium of Formulation 1 was used as the control hole (BC). When using the medium of Formulation 2, five concentration gradients of non-essential amino acids with the final concentration of 400 μM, 200 μM, 100 μM, 50 μM, 25 μM were prepared, respectively, and the prepared non-essential amino acids were added respectively to a 24-well plate inoculated with primary cells, with 500 μL per well; the medium of Formulation 2 was used as the control hole (BC). When using the medium of Formulation 3, five concentration gradients of glutamine with the final concentration of 8 mM, 4 mM, 2 mM, 1 mM, 0.5 mM were prepared, respectively, and the prepared glutamine were added respectively to a 24-well plate inoculated with primary cells, with 500 μL per well; the medium of Formulation 3 was used as the control hole (BC). When using the medium of Formulation 4, five concentration gradients of insulin with the final concentration of 40 μg/mL, 20 μg/mL, 10 μg/mL, 5 μg/mL, 2.5 μg/mL were prepared, respectively, and the prepared insulin were added respectively to a 24-well plate inoculated with primary cells, with 500 μL per well; the medium of Formulation 4 was used as the control hole (BC). When using the medium of Formulation 5, five concentration gradients of insulin-like growth factor 1 (IGF1) with the final concentration of 40 ng/mL, 20 ng/mL, 10 ng/mL, 5 ng/mL, 2.5 ng/mL were prepared, respectively, and the prepared insulin-like growth factor 1 (IGF1) were added respectively to a 24-well plate inoculated with primary cells, with 500 μL per well; the medium of Formulation 5 was used as the control hole (BC). […]

[2] = test system: primary cells of esophageal squamous carcinoma; assay: Effect of a single factor added to the basic culture medium on proliferation (Example 2); conditions: Sample 57, 7th day; BM = DMEM/F12 + 10 μM Y27632 + 100 mg/mL Primocin; factor at its No. 7 medium concentration
Protocol: To the basic culture mediums of Example 1 (DMEM/F12 medium+10 μM Y27632+100 mg/mL Primocin) were separatedly added 1:50 ratio of N2 additive, 20 μg/mL insulin, 7 μg/mL bovine pituitary extract, 2 mM glutamine, 400 μM non-essential amino acids, 0.4 μg/mL hydrocortisone, 5 ng/mL insulin-like growth factor 1, respectively, to prepare the culture mediums of this Example. According to the same process as in Example 1, endoscopic tissue Sample 57, Sample 58, Sample 59, Sample 60 and Sample 61 were isolated to obtain primary cells of esophageal squamous carcinoma, and the obtained primary cells of esophageal squamous carcinoma were cultured by using the respective culture mediums prepared in this Example, as well as BM medium and No. 7 medium (EM) of Example 1. The resultants were inoculated into 48-well plate at a living cell density of 1×10^4/cm^2 (10,000 cells per well), and then the plate was added with NIH-3T3 cells that have been irradiated by γ-ray (irradiation dose 35Gy) at a cell density of 2×10^4/cm^2, which were then fully mixed. After surface disinfection, the plate was placed in a 37° C., 5% CO2 incubator (Thermo Fisher) for culture. On the 7th day of culture, the 48-well plate was taken out, rinsed with 200 μL 0.25% trypsin (Gibco) for 1 minute. The liquid was removed by sucking, and 500 μL 0.05% trypsin (Gibco) was added to each well again. The resultant was placed in a 37° C., 5% CO2 incubator to react for 10 minutes, and the digestion can be terminated until it can be observed under the microscope (EVOS […], Invitrogen) that the cells have been completely digested. After being centrifuged at 1500 rpm for 4 minutes, the supernatant was discarded, and 1 mL of basic culture medium was added for resuspension. The total number of cells was obtained by counting with a flow imaging counter (JIMBIO FIL, Jiangsu Jimbio Technology Co., Ltd.). The effect of combination of two factors in the culture medium for primary cells of esophageal squamous carcinoma on the proliferation of primary cells of esophageal squamous carcinoma was evaluated. The results obtained from primary cells of esophageal squamous carcinoma isolated from endoscopic tissue Sample 57 are shown in FIG. 2.

[3] = test system: primary cells of esophageal squamous carcinoma; assay: Effect of adding other factors to EM medium on proliferation (Example 3); conditions: Sample 62, 10 ng/ml factor added to No. 7 medium (EM), cultured for 7 days
Protocol: To No. 7 mediums (EM) of Example 1 were separately added 10 ng/ml fibroblast growth factor 2 (FGF2), 10 ng/ml fibroblast growth factor 10 (FGF10), 10 ng/ml fibroblast growth factor 7 (FGF7) or the combination of 10 ng/ml FGF2, 10 ng/ml FGF10 and 10 ng/ml FGF7, respectively, to prepare the mediums of this Example.
According to the same process as in Example 1, endoscopic tissue Sample 62 and Sample 63 were isolated to obtain primary cells of esophageal squamous carcinoma, and the obtained primary cells of esophageal squamous carcinoma were cultured by using the respective culture mediums prepared in this Example, as well as No. 7 medium (EM) of Example 1. The resultants were inoculated into 48-well plate with at a cell density of 1×10^4/cm^2 (10,000 cells per well), and then the plate was added with NIH-3T3 cells that have been irradiated by γ-ray (irradiation dose 35Gy) at a cell density of 2×10^4/cm^2, which were then fully mixed. After surface disinfection, the plate was placed in a 37° C., 5% CO2 incubator (Thermo Fisher) for culture. On the 7th day of culture, the 48-well plate was taken out, rinsed with 200 μL 0.25% trypsin (Gibco) for 1 minute. The liquid was removed by sucking, and 500 μL 0.05% trypsin (Gibco) was added to each well again. The resultant was placed in a 37° C., 5% CO2 incubator to react for 10 minutes, and the digestion can be terminated until it can be observed under the microscope (EVOS M500, Invitrogen) that the cells have been completely digested. After being centrifuged at 1500 rpm for 4 minutes, the supernatant was discarded, and 1 mL of No. 7 medium (EM) was added for resuspension. The total number of cells was obtained by counting with a flow imaging counter (JIMBIO FIL, Jiangsu Jimbio Technology Co., Ltd.). The effect of adding other factors to the culture medium for primary cells of esophageal squamous carcinoma of the invention on the proliferation of primary cells of esophageal squamous carcinoma was evaluated. […]

Q: Which “proliferation promoting effect when added to No. 7 medium” value [1] does the source give for `Cc1c[nH]c(-c2cnc(NCCNc3ccc(C#N)cn3)nc2-c2ccc(Cl)cc2Cl)n1` [CHIR99021] here?
A: do not show significant proliferation promoting effect

Q: Which “proliferation promoting effect when added to No. 7 medium” value [1] does the source give for `C[C@H](NC(=O)Cc1cc(F)cc(F)c1)C(=O)N[C@H](C(=O)OC(C)(C)C)c1ccccc1` [DAPT] here?
A: do not show significant proliferation promoting effect

Q: `CC(C)Oc1ccc(-c2cnc3c(-c4ccnc5ccccc45)cnn3c2)cc1` [DMH-1] was tested. Which “proliferation promoting effect when added to No. 7 medium” value [1] did it give?
A: do not show significant proliferation promoting effect

Q: What does the source list for `NC(=O)CC[C@H](N)C(=O)O` [glutamine]?
A: cell proliferation efficiency when one factor is added to the basic culture medium [2]: better than that of the basic culture medium, but was not as good as that of the No. 7 medium (EM); concentration at which the cell proliferation effect is most significant ([1]; tested 0.5-8 mM): 2 mM

Q: For `Cc1cccc(-c2nn(C(=S)Nc3ccccc3)cc2-c2ccnc3ccccc23)n1` [A83-01], which “proliferation promoting effect when added to No. 7 medium” value [1] is on record?
A: do not show significant proliferation promoting effect

Q: `c1ccc2c(-c3cnn4cc(-c5ccc(N6CCNCC6)cc5)cnc34)ccnc2c1` [LDN193189] was tested. Which “proliferation promoting effect when added to No. 7 medium” value [1] did it give?
A: do not show significant proliferation promoting effect

Q: Which “proliferation promoting effect when added to No. 7 medium” value [1] does the source give for `NC(=O)c1ccc(-c2nc(-c3ccc4c(c3)OCO4)c(-c3ccccn3)[nH]2)cc1` [SB431542] here?
A: do not show significant proliferation promoting effect

Q: For `C[C@]12CCC(=O)C=C1CC[C@@H]1[C@@H]2[C@@H](O)C[C@@]2(C)[C@H]1CC[C@]2(O)C(=O)CO` [hydrocortisone], which “cell proliferation efficiency when one factor is added to the basic culture medium” value [2] is on record?
A: better than that of the basic culture medium, but was not as good as that of the No. 7 medium (EM)

Q: And the “concentration at which the cell proliferation effect is most significant” value ([1]; five concentration gradients)?
A: 400 ng/mL

Q: How did the “cell proliferation efficiency when one factor is added to the basic culture medium” value [2] turn out when insulin was run?
A: better than that of the basic culture medium, but was not as good as that of the No. 7 medium (EM)

Q: And the “concentration at which the cell proliferation effect is most significant” value ([1]; five concentration gradients)?
A: 20 ng/mL

Q: What does the source list for “insulin-like growth factor 1: insulin-like growth factor 1 (IGF-1, Sino Biological)”?
A: cell proliferation efficiency when one factor is added to the basic culture medium [2]: better than that of the basic culture medium, but was not as good as that of the No. 7 medium (EM); concentration at which the cell proliferation effect is most significant ([1]; five concentration gradients): 5 ng/mL

Q: For `C[C@@H](N)[C@H]1CC[C@H](C(=O)Nc2ccncc2)CC1` [Y27632], which “concentration at which the cell proliferation effect is most significant” value ([1]; five concentration gradients) is on record?
A: 0.01 mM

Q: Which “effect on proliferation as compared with EM medium (ratio of cell numbers)” value (“effect … (ratio of cell numbers)” for short) [3] does the source give for FGF2: fibroblast growth factor 2 here?
A: no significant effect for promoting proliferation

Q: For `Cc1ccc2nc(NC(=O)CSc3nc4c(c(=O)n3-c3ccccc3)SCC4)sc2c1` [IWP2], which “proliferation promoting effect when added to No. 7 medium” value [1] is on record?
A: do not show significant proliferation promoting effect

B1: FGF7: fibroblast growth factor 7 (protein, UniProt P21781 32-194, looked up)
Fibroblast growth factor 7: CNDMTPEQMATNVNCSSPERHTRSYDYMEGGDIRVRRLFCRTQWYLRIDKRGKVKGTQEMKNNYNIMEIRTVAVGIVAIKGVESEFYLAMNKEGKLYAKKECNEDCNFKELILENHYNTYASAKWTHNGGEMFVALNQKGIPVRGKKTKKEQKTAHFLPMAIT
Q: Which “effect … (ratio of cell numbers)” value [3] does the source give for B1 here?
A: inhibited

B2: FGF10: fibroblast growth factor 10 (protein, UniProt O15520 38-208, looked up)
Fibroblast growth factor 10: QALGQDMVSPEATNSSSSSFSSPSSAGRHVRSYNHLQGDVRWRKLFSFTKYFLKIEKNGKVSGTKKENCPYSILEITSVEIGVVAVKAINSNYYLAMNKKGKLYGSKEFNNDCKLKERIEENGYNTYASFNWQHNGRQMYVALNGKGAPRRGQKTRRKNTSAHFLPMVVHS
Q: Which “effect … (ratio of cell numbers)” value [3] does the source give for B2 here?
A: no significant effect for promoting proliferation
